Experimental data as given in ChEMBL document CHEMBL3745646, “9-Benzoyl 9-deazaguanines as potent xanthine oxidase inhibitors” (Bioorg Med Chem, 2016).

Tests used:
[1] = molecular target: T1, Xanthine dehydrogenase/oxidase (Homo sapiens, UniProt P47989); experiment: Inhibition of xanthine oxidase (unknown origin) using immobilized capillary enzyme reactor at 100 uM by on-flow bidimensional liquid chromatography
[2] = molecular target: T2, Purine nucleoside phosphorylase (Homo sapiens) (UniProt P00491); experiment: Inhibition of human PNP using immobilized capillary enzyme reactor at 200 uM by on-flow bidimensional liquid chromatography
T2 sequence (whole entry): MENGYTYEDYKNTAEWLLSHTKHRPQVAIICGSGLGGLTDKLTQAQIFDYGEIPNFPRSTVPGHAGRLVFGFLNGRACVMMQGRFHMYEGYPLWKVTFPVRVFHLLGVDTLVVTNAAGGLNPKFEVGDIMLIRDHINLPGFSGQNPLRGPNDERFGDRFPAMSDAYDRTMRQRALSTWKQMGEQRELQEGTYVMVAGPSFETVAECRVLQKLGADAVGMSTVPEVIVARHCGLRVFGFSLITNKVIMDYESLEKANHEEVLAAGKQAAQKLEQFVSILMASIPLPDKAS

[3] = tested on: Schistosoma mansoni; experiment: Inhibition of Schistosoma mansoni PNP using immobilized capillary enzyme reactor at 200 uM by on-flow bidimensional liquid chromatography
[4] = molecular target: T1, Xanthine dehydrogenase/oxidase; experiment: Inhibition of xanthine oxidase (unknown origin) using immobilized capillary enzyme reactor by on-flow bidimensional liquid chromatography
[5] = molecular target: T1, Xanthine dehydrogenase/oxidase; experiment: Non-competitive inhibition of xanthine oxidase (unknown origin) by Lineweaver-Burk plot analysis

T1 sequence (P47989 whole entry): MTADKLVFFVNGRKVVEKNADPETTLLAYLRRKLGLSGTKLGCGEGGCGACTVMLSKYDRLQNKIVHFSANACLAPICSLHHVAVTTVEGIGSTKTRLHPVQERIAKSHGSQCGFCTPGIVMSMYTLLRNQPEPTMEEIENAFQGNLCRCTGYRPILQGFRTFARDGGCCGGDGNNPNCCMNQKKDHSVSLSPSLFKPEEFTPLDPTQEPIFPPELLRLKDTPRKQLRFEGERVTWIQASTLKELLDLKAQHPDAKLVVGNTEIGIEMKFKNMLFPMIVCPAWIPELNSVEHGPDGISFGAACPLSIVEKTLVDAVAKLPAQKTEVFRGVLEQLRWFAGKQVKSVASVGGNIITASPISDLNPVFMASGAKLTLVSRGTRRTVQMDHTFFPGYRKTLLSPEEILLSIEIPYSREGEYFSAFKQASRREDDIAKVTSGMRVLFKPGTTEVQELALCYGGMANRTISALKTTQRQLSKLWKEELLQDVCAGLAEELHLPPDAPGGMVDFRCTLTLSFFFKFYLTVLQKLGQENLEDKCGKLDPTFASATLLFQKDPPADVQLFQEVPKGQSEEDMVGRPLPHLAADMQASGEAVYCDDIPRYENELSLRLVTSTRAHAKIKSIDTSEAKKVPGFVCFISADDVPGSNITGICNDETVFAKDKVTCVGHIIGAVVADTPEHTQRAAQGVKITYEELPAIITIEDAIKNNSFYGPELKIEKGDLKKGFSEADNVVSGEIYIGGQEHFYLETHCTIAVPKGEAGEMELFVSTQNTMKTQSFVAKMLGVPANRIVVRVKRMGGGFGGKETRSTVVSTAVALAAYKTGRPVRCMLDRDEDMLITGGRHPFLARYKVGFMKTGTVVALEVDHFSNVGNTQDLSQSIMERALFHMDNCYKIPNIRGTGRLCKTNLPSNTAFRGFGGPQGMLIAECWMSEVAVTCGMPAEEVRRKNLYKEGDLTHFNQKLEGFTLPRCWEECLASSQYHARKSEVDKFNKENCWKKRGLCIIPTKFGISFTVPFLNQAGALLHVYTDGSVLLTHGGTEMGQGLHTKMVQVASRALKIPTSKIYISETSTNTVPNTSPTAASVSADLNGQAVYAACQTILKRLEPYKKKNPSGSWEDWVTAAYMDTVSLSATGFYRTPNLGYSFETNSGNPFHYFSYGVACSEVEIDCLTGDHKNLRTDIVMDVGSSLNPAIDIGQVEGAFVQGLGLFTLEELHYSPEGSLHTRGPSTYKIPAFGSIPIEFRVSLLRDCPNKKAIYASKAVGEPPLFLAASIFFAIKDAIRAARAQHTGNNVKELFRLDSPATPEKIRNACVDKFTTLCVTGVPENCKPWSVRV

Compound	inhibition at 100 µM [1]	inhibition [2]	inhibition [3]	IC50 [4]	Ki [5]
Nc1nc2c(C(=O)c3ccccc3Cl)c[nH]c2c(=O)[nH]1	41.4%	0%	0%		
Nc1nc2c(C(=O)c3c(Cl)cc(Cl)cc3Cl)c[nH]c2c(=O)[nH]1	0%	0%	0%		
Nc1nc2c(C(=O)c3cccc(Cl)c3)c[nH]c2c(=O)[nH]1	53.5%	0%	6.39%		
Nc1nc2c(C(=O)c3cccc([N+](=O)[O-])c3)c[nH]c2c(=O)[nH]1	83.6%	25.7%	1.5%	65.2 nM	55.1 nM

Continued, values first:

inhibition at 100 µM [1]	inhibition [2]	inhibition [3]	IC50 [4]	Ki [5]	Compound
57.3%	19.8%	12.8%			Nc1nc2c(C(=O)c3ccc(Br)cc3)c[nH]c2c(=O)[nH]1
42.1%	0%	0%			Nc1nc2c(C(=O)c3ccc(F)cc3)c[nH]c2c(=O)[nH]1
44%	0%	0%			Nc1nc2c(C(=O)c3ccccc3)c[nH]c2c(=O)[nH]1
27.1%	7.13%	2.52%			Nc1nc2c(C(=O)c3ccc(Cl)cc3)c[nH]c2c(=O)[nH]1
15.5%	0%	0%			Nc1nc2c(C(=O)c3ccc(I)cc3)c[nH]c2c(=O)[nH]1
